Measured values from patent US12263172B2, “Toll-like receptor agonists for use in the treatment of hepatitis b” (priority 2019, dated 2025).
pIC50: −log10 of the molar value.

Columns and labels:
[1] = system: interferon-stimulated genes (ISGs) and cytokines in peripheral blood; assay: single oral administration in monkeys: tolerability, ISG and cytokine induction; format: in vivo
Text: (§1) Exposure increased more than dose-proportionally at low doses. Variability in exposure was high. • In vitro plasma protein binding was between 79.6% and 94.2% in animals and humans. Volume of distribution after intravenous dosing was high. […] Main metabolic pathways were oxygenation, hydrogenation, dehydrogenation, dealkylation, acetylation, glucuronidation, and/or glutathione conjugation. • In rats, >80% of drug-related material was found in feces, 11% to 20% in bile, and <4% in urine. […] There were no effects on embryofetal development up to 1 mg/kg/dose in rats and 30 mg/kg/dose in rabbits.

[2] = in vitro permeability and P-glycoprotein substrate; format: in vitro ADME
Text: as §1

P-glycoprotein = P-glycoprotein (Homo sapiens, UniProt P08183); assay: in vitro permeability and P-glycoprotein substrate; format: in vitro ADME
Text: as §1

human TLR7 = biological target: T1, human TLR7 (Homo sapiens, UniProt Q9NYK1); assay: activation of human TLR7 (LEC); format: cell-based
T1 sequence (Q9NYK1 27-1049): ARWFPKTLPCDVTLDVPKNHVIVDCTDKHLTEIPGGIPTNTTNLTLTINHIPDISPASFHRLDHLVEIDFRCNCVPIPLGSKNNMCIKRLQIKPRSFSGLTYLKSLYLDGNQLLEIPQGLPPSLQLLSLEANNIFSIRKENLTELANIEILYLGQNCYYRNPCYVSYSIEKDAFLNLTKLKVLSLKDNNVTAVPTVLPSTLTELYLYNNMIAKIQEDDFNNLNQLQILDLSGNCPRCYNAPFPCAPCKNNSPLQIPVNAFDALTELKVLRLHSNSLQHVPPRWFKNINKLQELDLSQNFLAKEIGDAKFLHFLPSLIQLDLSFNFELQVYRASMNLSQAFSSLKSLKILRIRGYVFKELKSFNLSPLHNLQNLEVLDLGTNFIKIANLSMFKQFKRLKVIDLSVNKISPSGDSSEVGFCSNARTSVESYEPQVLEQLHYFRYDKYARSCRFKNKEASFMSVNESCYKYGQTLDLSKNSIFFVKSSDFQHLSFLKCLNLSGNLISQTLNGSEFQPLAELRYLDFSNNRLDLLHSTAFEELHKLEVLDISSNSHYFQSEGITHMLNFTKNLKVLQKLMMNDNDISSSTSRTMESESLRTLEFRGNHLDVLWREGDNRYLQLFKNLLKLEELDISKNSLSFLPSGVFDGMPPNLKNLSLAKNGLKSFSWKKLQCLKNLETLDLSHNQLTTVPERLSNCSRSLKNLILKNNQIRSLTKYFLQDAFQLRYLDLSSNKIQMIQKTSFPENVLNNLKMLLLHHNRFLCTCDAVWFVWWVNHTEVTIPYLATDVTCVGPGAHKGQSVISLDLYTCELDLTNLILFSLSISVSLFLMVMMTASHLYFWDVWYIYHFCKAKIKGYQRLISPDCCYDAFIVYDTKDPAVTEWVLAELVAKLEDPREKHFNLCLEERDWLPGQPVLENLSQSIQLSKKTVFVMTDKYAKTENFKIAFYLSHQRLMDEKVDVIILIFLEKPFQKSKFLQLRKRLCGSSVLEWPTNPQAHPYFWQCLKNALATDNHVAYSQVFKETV

[3] = off-target liabilities in vitro; conditions: read-out: lowest IC50 for off-target liabilities
Text: as §1

[4] = 6-month toxicity study in rats; conditions: rat, in vivo
Text: as §1

P-glycoprotein, sequence (P08183 whole entry): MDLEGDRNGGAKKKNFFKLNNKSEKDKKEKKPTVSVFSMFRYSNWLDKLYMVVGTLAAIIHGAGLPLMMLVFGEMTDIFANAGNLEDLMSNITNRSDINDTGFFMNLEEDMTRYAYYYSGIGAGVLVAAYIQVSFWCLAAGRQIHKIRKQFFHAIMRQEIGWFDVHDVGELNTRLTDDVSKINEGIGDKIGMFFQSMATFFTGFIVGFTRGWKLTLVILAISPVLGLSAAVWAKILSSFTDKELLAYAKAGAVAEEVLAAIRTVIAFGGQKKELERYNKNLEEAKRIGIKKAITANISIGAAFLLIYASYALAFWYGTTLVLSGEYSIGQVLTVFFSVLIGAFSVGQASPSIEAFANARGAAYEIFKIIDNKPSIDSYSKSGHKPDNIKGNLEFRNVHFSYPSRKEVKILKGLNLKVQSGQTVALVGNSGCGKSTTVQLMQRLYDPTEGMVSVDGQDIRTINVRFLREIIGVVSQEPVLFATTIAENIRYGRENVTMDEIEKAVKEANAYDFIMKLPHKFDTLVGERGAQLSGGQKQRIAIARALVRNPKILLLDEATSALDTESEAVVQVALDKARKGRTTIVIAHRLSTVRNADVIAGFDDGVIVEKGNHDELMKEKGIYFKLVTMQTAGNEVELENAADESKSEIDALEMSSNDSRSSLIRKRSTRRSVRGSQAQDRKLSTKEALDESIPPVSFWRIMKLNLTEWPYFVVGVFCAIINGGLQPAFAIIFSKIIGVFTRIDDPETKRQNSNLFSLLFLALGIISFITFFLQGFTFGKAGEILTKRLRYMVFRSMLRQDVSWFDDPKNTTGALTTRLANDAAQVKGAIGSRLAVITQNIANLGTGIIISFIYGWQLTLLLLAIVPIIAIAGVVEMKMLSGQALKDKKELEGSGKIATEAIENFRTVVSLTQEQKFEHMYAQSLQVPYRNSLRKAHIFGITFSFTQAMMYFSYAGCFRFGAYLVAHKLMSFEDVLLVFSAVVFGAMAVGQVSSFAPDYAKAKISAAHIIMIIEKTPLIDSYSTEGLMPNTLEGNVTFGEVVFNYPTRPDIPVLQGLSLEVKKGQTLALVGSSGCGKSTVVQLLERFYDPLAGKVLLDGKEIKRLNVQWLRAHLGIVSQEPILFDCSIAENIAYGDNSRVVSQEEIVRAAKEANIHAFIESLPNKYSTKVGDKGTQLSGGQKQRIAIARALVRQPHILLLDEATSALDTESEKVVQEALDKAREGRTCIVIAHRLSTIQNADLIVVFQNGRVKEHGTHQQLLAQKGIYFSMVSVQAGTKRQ

CCCCOc1nc(N)c2[nH]cc(Cc3ccc(CN4CCCC4)cc3)c2n1 [Compound 4]
cytokine induction (IFN-α, IP-10, IL-1 RA, MCP-1) ([1]; 0.6 mg/kg): induction of 4 of the 14 cytokines tested
cytokine induction ([1]; 0.1 and 0.15 mg/kg): only increases in IP-10 were detected
ISG15, MX1 and OAS1 in peripheral blood ([1]; each dose, 12-24 hours postdose): increase in all 3 major interferon-stimulated genes
dose for which the LEC was observed (minimal target engagement) ([1]; monkey, in vivo): 0.1 mg/kg
tolerability ([1]; single oral 0.05, 0.1, 0.15 and 0.6 mg/kg): well tolerated
in vitro permeability [2]: low
P-glycoprotein substrate (P-glycoprotein): P-glycoprotein substrate
lowest effective concentration (LEC) for activation of human TLR7 (human TLR7): 70 nM
pIC50 [3]: ≤ 5.71
AUC(0-t) ([4]; 1.0 mg/kg qw or q2w, read-out: AUC24h at NOAEL): 16.6 to 27.3 ng·h/mL
Cmax ([4]; 1.0 mg/kg qw or q2w, read-out: Cmax at NOAEL): 3.32 to 7.88 ng/mL
NOAEL at 6 months ([4]; qw or q2w, 6 months): 1 mg/kg
